Assay results as given in PubChem BioAssay AID463074 (Broad Institute, 2010).
Calls of active or inactive are those of the source.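 The calls were made as follows: active = AC50 no more than tenfold above the top dose tested, or full inhibition at every dose with a flat fit (cut at about 19 µM in these data); inconclusive = flat curve fit with inhibition between 30% and 70%, or poor fit; inactive = AC50 more than tenfold above the top dose tested.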

The compounds below were run on HMLE_sh_eGFP viability, CellTiter-Glo luminescence, 72 h (assay: cytotoxicity in HMLE control line with eGFP shRNA, dose response, counter-screen for HMLE_sh_ECad selective toxicity project, cell-based, HMLE_sh_eGFP, luminescence (AID 463074);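 also: counterscreen control line to flag general toxicity for the HMLE_sh_ECad screen; potency for loss of viability as luminescence drops below DMSO wells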).

Row | Compound | AC50
1 | Cc1ccc2nc(-c3ccccn3)c(Nc3ccccc3C)n2c1 | 5.04 µM
2 | CCOC(=O)C(C)(C)N(Cc1ccc(Cl)cc1)S(=O)(=O)c1ccc(Cl)c([N+](=O)[O-])c1 | 2.5 µM
3 | Cc1cccc(NC(=O)c2nc[nH]c2C(=O)NCCCNC(=O)c2[nH]cnc2C(=O)Nc2cccc(C)c2)c1 | 6.71 µM
4 | Cc1ccc(/C=C/C(=O)c2cc(Br)ccc2OC(=O)c2ccco2)cc1 | 5.92 µM
5 | C[C@@H]1O[C@@H](O[C@@H]2C=C3CCC4C(CC[C@]5(C)[C@@H](c6ccc(=O)oc6)CC[C@]45O)[C@@]3(C)CC2)[C@H](O)[C@H](O)[C@H]1O (some centres undefined) | < 0.16 µM
6 | COc1ccc(-c2sc3ccccc3c2-c2ccc(OCCN(C)C)cc2)cc1 | 3.38 µM
7 | Sc1nnc(-c2ccc(Cl)cc2)n1Cc1ccccc1 | 8.62 µM
8 | CC(C)c1nc2sc3ccccc3c(=O)c2c(=O)n1Cc1ccccc1 | 6.29 µM
9 | CC1(C)CC[C@]2(CO)[C@@H](O)C[C@]3(C)C(=CCC4[C@@]5(C)CC[C@H](O)C(C)(C)C5CC[C@]43C)[C@@H]2C1 (some centres undefined) | 4.35 µM
10 | COc1ccc(C(=O)NC(=S)Nc2ccccc2N2CCCCC2)cc1[N+](=O)[O-] | 0.574 µM
11 | COc1ccc(CN2CCC(N(CCc3ccccc3)Cc3ccccc3)CC2)c(OC)c1 | 5.43 µM
12 | CCc1c(C2(O)CCCCC2)[nH]c2ccc(C(F)(F)F)cc12 | 3.56 µM
13 | O=C(CN(c1cccc(C(F)(F)F)c1)S(=O)(=O)c1ccc(Cl)c([N+](=O)[O-])c1)NCc1ccc(F)cc1 | 3.26 µM
14 | Clc1ccc(CO/N=C/c2c(-c3ccccc3)nc3n2CCS3)c(Cl)c1 | 4.62 µM
15 | CN1CCN(c2ccc(S(=O)(=O)N3CCCCC3)cc2NC(=O)/C=C/c2ccc(Cl)c([N+](=O)[O-])c2)CC1 | 4.42 µM
16 | CCOC(=O)N1CCN(c2ccc(C(=O)c3cccc(F)c3)cc2)CC1 | > 19.5 µM (inactive)
17 | O=C1/C(=C/c2ccncc2)Oc2cc(OS(=O)(=O)c3ccccc3)ccc21 | 4.81 µM
18 | COC(=O)c1sc(-c2ccc(C(C)(C)C)cc2)cc1NC(=O)/C=C/C(=O)O | 4.28 µM
19 | O=C(Nc1ccc(OC(F)F)c(Cl)c1)Nc1ccc2c(c1)OCO2 | 3.14 µM
20 | CCOC(=O)C1=C(C)N2C(=C(C#N)[C@@H]1c1ccc(C(=O)OC)cc1)SC[C@@]2(O)C(C)(C)C | 4.79 µM
21 | CC(=O)Nc1ccc(-c2csc(NC(=O)Cc3cccc(F)c3)n2)cc1 | 5.64 µM
22 | CC1=NN(c2ccccc2)C(=O)/C1=C/c1c(O)n(-c2ccc(F)cc2)[nH]c1=O | 15.8 µM
23 | COC(=O)C1=C(C)N(Cc2ccccc2)C(=NCc2ccccc2)N[C@H]1c1cccc(C(F)(F)F)c1 | 3.68 µM
24 | CCN(c1ccccc1)S(=O)(=O)c1cccc(C(=O)NCC(c2cccs2)N2CCOCC2)c1 (centres undefined) | > 19.5 µM (inactive)
25 | O=[N+]([O-])c1ccc(Cl)c([N+](=O)[O-])c1 | 5.62 µM
26 | O=c1cc(N2CCCCC2)c(-c2ccccc2)nn1Cc1ccc(Cl)cc1Cl | 3.96 µM

Row | Compound | AC50
27 | O=C(NC1CONC1=O)OCC(Cl)(Cl)Cl (centres undefined) | > 19.5 µM (inactive)
28 | Clc1ccc2c(N/N=C/c3ccc(Br)cc3)ccnc2c1 | 7.56 µM
29 | COC(=O)c1ccc(/C=C/c2c(-c3ccc(OC)cc3)sc3ccccc23)cc1 | 7.05 µM
30 | Cc1ccc(-c2csc(-c3c[nH]c4ccccc34)n2)c(C)c1 | 4.19 µM
31 | COC(=O)[C@@H]1C[C@]2(OC(=O)c3ccccc3)C=CC(=O)C[C@@H]2N1C(=O)OCc1ccccc1 | 7.87 µM
32 | O=C(Nc1nccs1)c1ccc(COc2ccccc2Br)o1 | 4.84 µM
33 | CCCn1c(=O)c(C(=O)NNS(=O)(=O)c2ccc(Cl)cc2)c(O)c2ccccc21 | 2.03 µM
34 | Cc1cc(C(C)(C)C)ccc1OCCCCN1CCCC1 | 4.22 µM
35 | O=c1cc(N2CCCCC2)c(-c2ccccc2)nn1Cc1cccc(Cl)c1 | 4.56 µM
36 | O=S(=O)(N/N=C1/CC(c2ccccc2)Oc2ccccc21)c1ccc(Br)cc1 (centres undefined) | 4.21 µM
37 | CC(NC(=O)COC(=O)c1cc(NS(=O)(=O)c2ccc(Cl)c([N+](=O)[O-])c2)ccc1O)C1CC2CCC1C2 (centres undefined) | 3.52 µM
38 | O=C(Nc1ccc(F)cc1)c1nc(S(=O)(=O)Cc2ccccc2)ncc1Cl | 7.15 µM
39 | COc1ccccc1NC(=O)c1ccc(S(=O)(=O)N2CCCC(C)C2)cc1 (centres undefined) | > 19.5 µM (inactive)
40 | CCn1c(N2CCN(S(=O)(=O)c3ccc(F)cc3)CC2)nc2ccccc21 | > 19.5 µM (inactive)
41 | OC(CNCC1CCCO1)Cn1c2ccc(Cl)cc2c2cc(Cl)ccc21 (centres undefined) | 7.38 µM
42 | COC(=O)C1C(=O)C2=C(CC1C)NC(=O)CC2c1cccc(C)c1 (centres undefined) | > 19.5 µM (inactive)
43 | O=c1c2ccccc2nc(/C=C/c2ccccc2)n1-c1ccccc1O | 10.7 µM
44 | COc1cc2c(cc1NC(=O)CN(C)Cc1cccc(OC)c1OC)oc1ccccc12 | 3.56 µM
45 | CCCCCCSc1cccc(-c2nc3ccc(Cl)cn3c2NCc2ccccc2)c1 | 3.12 µM
46 | FC(F)(F)c1cc(CCN2CCNC[C@H]2Cc2cccc3ccccc23)cc(C(F)(F)F)c1 | 3.53 µM
47 | NC(=O)c1sc(-c2ccsc2)cc1NS(=O)(=O)c1ccc(C(F)(F)F)cc1 | 16.1 µM
48 | CC(CNC(=S)Nc1cc(F)cc(F)c1)CSc1ccc(Cl)cc1 (centres undefined) | 6.55 µM
49 | O=S(=O)(Nc1nc2ccccc2nc1Nc1ccc(N2CCOCC2)cc1)c1cc(Cl)ccc1Cl | 4.23 µM
50 | O=C(CCOc1ccccc1)N1CCN(c2ccc(O)cc2)CC1 | 3.25 µM
51 | Cc1cc(C(=O)NNc2ccc(F)cc2)no1 | 1.68 µM
52 | CN1C2CCC1/C(=C\c1ccccc1)C(=O)/C2=C\c1ccccc1 | 4.24 µM

Row | Compound | AC50
53 | O=C1NC(=O)N(Cc2ccccc2)C(=O)/C1=C/C=C/c1ccco1 | 2.04 µM
54 | Cc1ccc(C(C)C)c(OCc2nn(CC(=O)c3ccc(Cl)cc3)c3[n+]2CCCCC3)c1 | 3.22 µM
55 | CC(=O)c1ccc(N2CCN(c3ccc(S(=O)(=O)NCCCN(C)C)cc3[N+](=O)[O-])CC2)cc1 | 2.92 µM
56 | O=C(CSc1nc2nc(-c3cccs3)cc(C(F)(F)F)c2c(=O)[nH]1)Nc1c(F)c(F)c(F)c(F)c1F | 3.43 µM
57 | COc1cccc(C(=O)Nc2ccc(C3CC3(Cl)Cl)cc2)c1 (centres undefined) | 16.4 µM
58 | O=C(c1ccc(CSc2ccccc2)cc1)N1CCN(c2ccccc2)CC1 | 9.49 µM
59 | C=C1CCc2c([nH]c3ccc(OCC(C)C)cc23)C1=O | 5.57 µM
60 | N#CCSc1nc2ccccc2c2nc3ccccc3n12 | 5.1 µM
61 | COc1ccc2sc(-c3ccc(SC)cc3)c(C#CCO)c2c1 | 8.45 µM
62 | Clc1ccc(Nc2ncnc3ccc(Br)cc23)cc1 | 17.5 µM
63 | CN1/C(=C\C(=O)Nc2ccc(Br)cc2)C(C)(C)c2ccccc21 | 7.32 µM
64 | Oc1ccc(Br)cc1/C=N/NC(=S)NCCc1ccccc1 | 4.19 µM
65 | O=C(Nc1cccc(Cl)c1N1CCCCC1)c1ccc2c(c1)OCCO2 | 11.4 µM
66 | Oc1ccccc1/C=N/Nc1nccnc1Cl | 5.91 µM
67 | O=C1C=C(Nc2ccc(F)cc2)c2ccccc2C1=O | 6.78 µM
68 | O=C1c2ccccc2C2=Nc3ccccc3SC(c3ccc(Cl)cc3)C12 (centres undefined) | 10.6 µM
69 | CCc1c(C)sc(NC(=O)/C=C/c2ccc3c(c2)OCO3)c1C(=O)OC | 0.776 µM
70 | CCN1CCN(c2cc(-c3ccccc3)nc3cc(-c4cccc(F)c4)nn23)CC1 | 5.65 µM
71 | CC(C)(C)NC(=O)Cn1nnc(-c2ccc(OCc3c(F)cccc3Cl)cc2)n1 | 1.79 µM
72 | Cn1nnnc1Sc1ncnc2scc(-c3cccc(Br)c3)c12 | 3.14 µM
73 | Cc1ccc(/C=C/C(=O)Nc2ccc(Oc3ccccc3)cc2)o1 | 5.42 µM
74 | COc1cc(SC#N)ccc1N=Cc1c(C)[nH]n(-c2ccc(C)cc2)c1=O | 5.99 µM
75 | COc1ccc(Br)cc1C(=O)Nc1cccc(C)c1 | > 19.5 µM (inactive)
76 | CCOC(=O)c1c(C)[nH]c(C(=O)N/N=C\c2ccccc2O)c1C | 8.76 µM
77 | Cc1ccc(Oc2nc(CN3CCOCC3)nc3sc4c(c23)CCC(C)C4)cc1C (centres undefined) | 6.32 µM
78 | O=C(Nc1ccc(OCC(F)(F)C(F)F)c(C(F)(F)F)c1)c1ccc(Cl)cc1 | 3.19 µM

Row | Compound | AC50
79 | Nc1c(C(=O)Nc2ccccc2)c2nc3ccccc3nc2n1CCCN1CCOCC1 | 6.77 µM
80 | Cc1cccc(C(=O)Nc2ccc(C(=O)Nc3ccc(O)cc3)cc2)c1 | 5.08 µM
81 | COc1ccc(-n2sc3c(c2=S)-c2cc(OC)ccc2NC3(C)C)cc1 | 3.51 µM
82 | C[C@H](CO)N1C[C@H](C)[C@H](CN(C)Cc2ccc(-c3ccccc3)cc2)Oc2ccc(NS(=O)(=O)c3ccccc3)cc2CC1=O | 4.74 µM
83 | CCc1ccccc1Nc1nn2c(=O)c3ccc(C(=O)NCc4ccccn4)cc3nc2s1 | < 0.16 µM
84 | COc1cc(C#Cc2c(-c3cncn3C)n(C)c3ccc(-c4ccc(OC)nc4)cc23)cc(OC)c1 | 6.61 µM
85 | COc1ccc(Sc2ccc(-c3nc4cnccn4c3NC3CCCCC3)cc2OC)cc1 | 3.57 µM
86 | Cc1ccc(S(=O)(=O)N(C)c2ccc(OCc3cccc(C)c3)cc2)cc1 | 1.99 µM
87 | Cc1cccc(CN2CCN(C(c3ccccc3)c3ccc(Cl)cc3)CC2)c1 (centres undefined) | 4.76 µM
88 | CCCC(O)(c1ccc(Cl)cc1)C(CN1CCOCC1)c1ccc(Cl)cc1 (centres undefined) | 9.47 µM
89 | CN(CC(=O)Nc1ccccc1Cl)C(=O)c1cccc(-n2cccc2)c1 | > 19.5 µM (inactive)
90 | COc1ccc(/C=C/C(=O)c2ccccc2)cc1Cn1nnc2ccccc21 | 6.28 µM
91 | CCCc1nc(NC2CCCCC2)c(C#N)c2c1COC(C)(C)C2 | 7.68 µM
92 | C[C@H]1CCC/C=C/[C@@H]2C[C@H](O)C[C@H]2[C@H](O)/C=C/C(=O)O1 | < 0.16 µM
93 | CC1CCCN(CCCNC(=O)c2cc3c(Cl)nc4ccccc4c3s2)C1 (centres undefined) | 8.14 µM
94 | CCN1CCN(C(=O)c2ccc(CSc3ccc(C)cc3)cc2)CC1 | 0.22 µM
95 | CCC1CCCCN1S(=O)(=O)c1ccc(S(=O)(=O)N(Cc2ccccn2)CC2CCCO2)cc1 (centres undefined) | 2.49 µM
96 | O=C(Nc1ccc(C(O)(C(F)(F)F)C(F)(F)F)cc1)c1ccc(Cl)c([N+](=O)[O-])c1 | 7.08 µM
97 | CCc1nc(N2CCC(C)CC2)c2oc3ccccc3c2n1 | 7.06 µM
98 | CN1CCN(c2ccccc2NC(=O)c2ccc(-c3ccc(Cl)c(Cl)c3)o2)CC1 | 6.68 µM
99 | CC(=O)Nc1ccc(NC(=O)c2nc(S(=O)(=O)Cc3cccc(C)c3)ncc2Cl)cc1 | 4.99 µM
100 | O=C(Nc1ccccc1)C1=C[C@@H](c2csc3ccccc23)C[C@@H](OCc2ccc(CO)cc2)O1 | 4.11 µM
101 | CCOC(=O)c1c(NC(NC(=O)C(C)C)C(Cl)(Cl)Cl)sc2c1CCC2 (centres undefined) | 7.47 µM
102 | CCCC[C@@H](CN[C@H](C)CNC)NCC1CCC(C(C)(C)C)CC1 (some centres undefined) | 6.37 µM
103 | NS(=O)(=O)c1ccc(N=Cc2c(O)n(C3CCCCC3)c(=O)n(C3CCCCC3)c2=O)cc1 | 3.81 µM
104 | CC(C)c1ccc(/C=N/NC(=O)c2ccccn2)cc1 | > 19.5 µM (inactive)
